{"source": "ChEMBL document CHEMBL5325413", "about": "“Optimization of BAX trigger site activator BTSA1 with improved antitumor potency and in vitro ADMET properties” (Eur J Med Chem, 2023)", "key": {"A549 [1]": {"tested_on": "A549", "test": "Antiproliferative activity against human A549 cells assessed as cell growth inhibition incubated for 72 hrs by MTT assay", "type": "functional"}, "PC-3": {"tested_on": "PC-3", "test": "Antiproliferative activity against human PC-3 cells assessed as cell growth inhibition incubated for 72 hrs by MTT assay", "type": "functional"}, "A549 [2]": {"tested_on": "A549", "test": "Induction of apoptosis in human A549 cells assessed as early apoptotic cells at 10 uM incubated for 48 hrs by Annexin V-FITC/PI staining based flow cytometry analysis (reference value: 0.708%)", "type": "functional"}, "A549 [3]": {"tested_on": "A549", "test": "Induction of apoptosis in human A549 cells assessed as dead cells at 10 uM incubated for 48 hrs by Annexin V-FITC/PI staining based flow cytometry analysis (reference value: 0.739%)", "type": "functional"}, "A549 [4]": {"tested_on": "A549", "test": "Induction of apoptosis in human A549 cells assessed as upregulation of BAX translocation at 20 uM incubated for 24 hrs by Western blot analysis", "type": "functional, cell-based"}, "A549 [5]": {"tested_on": "A549", "test": "Antiproliferative activity against human A549 cells assessed as reduction in cell viability at 1 to 5 uM by MTT assay", "type": "functional, cell-based", "conditions": "dose 1-5 µM, time 24-72 hrs, TDE = time-dependent effect"}, "NCI-H1581": {"tested_on": "NCI-H1581", "test": "Antiproliferative activity against human NCI-H1581 cells expressing BAX assessed as cell growth inhibition incubated for 72 hrs by MTT assay", "type": "functional"}, "MDA-MB-231": {"tested_on": "MDA-MB-231", "test": "Antiproliferative activity against human MDA-MB-231 cells expressing BAX assessed as cell growth inhibition incubated for 72 hrs by MTT assay", "type": "functional"}, "K562": {"tested_on": "K562", "test": "Antiproliferative activity against human K562 cells expressing BAX assessed as cell growth inhibition incubated for 72 hrs by trypan blue cell counting analysis", "type": "functional"}, "THP-1": {"tested_on": "THP-1", "test": "Antiproliferative activity against human THP-1 cells expressing BAX assessed as cell growth inhibition incubated for 72 hrs by trypan blue cell counting analysis", "type": "functional"}, "A549 [6]": {"tested_on": "A549", "test": "Induction of apoptosis in human A549 cells assessed as live cells at 5 uM incubated for 48 hrs by Annexin V-FITC/PI staining based flow cytometry analysis (reference value: 95.9 %)", "type": "functional"}, "A549 [7]": {"tested_on": "A549", "test": "Induction of apoptosis in human A549 cells assessed as early apoptotic cells at 5 uM incubated for 48 hrs by Annexin V-FITC/PI staining based flow cytometry analysis (reference value: 1.09 %)", "type": "functional"}, "A549 [8]": {"tested_on": "A549", "test": "Induction of apoptosis in human A549 cells assessed as late apoptotic cells at 5 uM incubated for 48 hrs by Annexin V-FITC/PI staining based flow cytometry analysis (reference value: 2.52%)", "type": "functional"}, "A549 [9]": {"tested_on": "A549", "test": "Induction of apoptosis in human A549 cells assessed as dead cells at 5 uM incubated for 48 hrs by Annexin V-FITC/PI staining based flow cytometry analysis (reference value: 0.535%)", "type": "functional"}, "A549 [10]": {"tested_on": "A549", "test": "Induction of apoptosis in human A549 cells assessed as live cells at 10 uM incubated for 48 hrs by Annexin V-FITC/PI staining based flow cytometry analysis (reference value: 95.9 %)", "type": "functional"}, "A549 [11]": {"tested_on": "A549", "test": "Induction of apoptosis in human A549 cells assessed as late apoptotic cells at 10 uM incubated for 48 hrs by Annexin V-FITC/PI staining based flow cytometry analysis (reference value: 2.52%)", "type": "functional"}, "A549 [12]": {"tested_on": "A549", "test": "Induction of apoptosis in human A549 cells assessed as total apoptotic cells at 10 uM incubated for 48 hrs by Annexin V-FITC/PI staining based flow cytometry analysis (reference value: 2.86%)", "type": "functional"}, "A549 [13]": {"tested_on": "A549", "test": "Induction of apoptosis in human A549 cells assessed as total apoptotic cells at 5 uM incubated for 48 hrs by Annexin V-FITC/PI staining based flow cytometry analysis (reference value: 4.26%)", "type": "functional"}, "A549 [14]": {"tested_on": "A549", "test": "Induction of apoptosis in human A549 cells assessed as total apoptotic cells at 10 uM incubated for 48 hrs by Annexin V-FITC/PI staining based flow cytometry analysis (reference value: 4.26%)", "type": "functional"}, "A549 [15]": {"tested_on": "A549", "test": "Induction of cell cycle arrest in human A549 cells assessed as accumulation of cells at G0/G1 phase at 5 uM incubated for 48 hrs by RNase/PI staining based flow cytometry analysis (reference value: 54.82%)", "type": "functional"}, "A549 [16]": {"tested_on": "A549", "test": "Induction of cell cycle arrest in human A549 cells assessed as accumulation of cells at S phase at 2.5 uM incubated for 48 hrs by RNase/PI staining based flow cytometry analysis (reference value: 26.01%)", "type": "functional"}, "A549 [17]": {"tested_on": "A549", "test": "Induction of cell cycle arrest in human A549 cells assessed as accumulation of cells at S phase at 5 uM incubated for 48 hrs by RNase/PI staining based flow cytometry analysis (reference value: 26.01%)", "type": "functional"}, "A549 [18]": {"tested_on": "A549", "test": "Induction of cell cycle arrest in human A549 cells assessed as accumulation of cells at G2/M phase at 2.5 uM incubated for 48 hrs by RNase/PI staining based flow cytometry analysis (reference value: 18.97%)", "type": "functional"}, "A549 [19]": {"tested_on": "A549", "test": "Induction of cell cycle arrest in human A549 cells assessed as accumulation of cells at G2/M phase at 5 uM incubated for 48 hrs by RNase/PI staining based flow cytometry analysis (reference value: 18.97%)", "type": "functional"}, "A549 [20]": {"tested_on": "A549", "test": "Induction of apoptosis in human A549 cells assessed as increase in cleaved PARP level incubated for 48 hrs by Western blot analysis", "type": "functional, cell-based", "conditions": "dose 5-40 µM"}, "[21]": {"test": "Metabolic stability in human liver microsomes assessed as parent compound remaining at 100 uM incubated for 60 mins in presence of NADPH by LC-MS/MS analysis"}, "[22]": {"test": "Metabolic stability in human liver microsomes assessed as parent compound remaining at 100 uM incubated for 60 mins in absence of NADPH by LC-MS/MS analysis"}, "[23]": {"test": "Metabolic stability in mouse liver microsomes assessed as parent compound remaining at 100 uM incubated for 60 mins in presence of NADPH by LC-MS/MS analysis"}, "[24]": {"test": "Metabolic stability in mouse liver microsomes assessed as parent compound remaining at 100 uM incubated for 60 mins in absence of NADPH by LC-MS/MS analysis"}, "[25]": {"test": "Stability in rat plasma assessed as compound remaining measured after 10 mins", "type": "ADME, cell-free", "conditions": "read-out: Stability"}, "[26]": {"test": "Drug recovery in mouse liver microsomes at 100 uM incubated for 60 mins in absence of NADPH by LC-MS/MS analysis", "type": "ADME, Microsome", "conditions": "read-out: Drug recovery"}, "Cytochrome P450 2C9": {"target": "Cytochrome P450 2C9 (Homo sapiens, UniProt P11712)", "sequence (P11712 whole entry)": "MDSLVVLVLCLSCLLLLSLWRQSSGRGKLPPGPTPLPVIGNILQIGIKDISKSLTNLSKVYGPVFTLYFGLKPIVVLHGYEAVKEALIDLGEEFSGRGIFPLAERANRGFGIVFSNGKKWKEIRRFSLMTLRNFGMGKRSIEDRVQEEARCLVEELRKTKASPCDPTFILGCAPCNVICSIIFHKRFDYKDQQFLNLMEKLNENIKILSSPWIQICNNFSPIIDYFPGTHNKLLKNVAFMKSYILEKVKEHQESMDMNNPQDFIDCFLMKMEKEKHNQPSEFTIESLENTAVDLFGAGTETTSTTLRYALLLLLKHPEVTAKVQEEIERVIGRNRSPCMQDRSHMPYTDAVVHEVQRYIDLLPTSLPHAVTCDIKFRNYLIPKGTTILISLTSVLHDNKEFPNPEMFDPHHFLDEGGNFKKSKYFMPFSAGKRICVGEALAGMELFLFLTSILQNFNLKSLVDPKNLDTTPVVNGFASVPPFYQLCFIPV", "test": "Inhibition of CYP2C9 in human liver microsomes using diclofenac as substrate prewarmed for 10 mins followed by NADPH addition and measured after 10 mins by LC-MS/MS analysis"}, "Cytochrome P450 2D6": {"target": "Cytochrome P450 2D6 (Homo sapiens, UniProt P10635)", "sequence (P10635 whole entry)": "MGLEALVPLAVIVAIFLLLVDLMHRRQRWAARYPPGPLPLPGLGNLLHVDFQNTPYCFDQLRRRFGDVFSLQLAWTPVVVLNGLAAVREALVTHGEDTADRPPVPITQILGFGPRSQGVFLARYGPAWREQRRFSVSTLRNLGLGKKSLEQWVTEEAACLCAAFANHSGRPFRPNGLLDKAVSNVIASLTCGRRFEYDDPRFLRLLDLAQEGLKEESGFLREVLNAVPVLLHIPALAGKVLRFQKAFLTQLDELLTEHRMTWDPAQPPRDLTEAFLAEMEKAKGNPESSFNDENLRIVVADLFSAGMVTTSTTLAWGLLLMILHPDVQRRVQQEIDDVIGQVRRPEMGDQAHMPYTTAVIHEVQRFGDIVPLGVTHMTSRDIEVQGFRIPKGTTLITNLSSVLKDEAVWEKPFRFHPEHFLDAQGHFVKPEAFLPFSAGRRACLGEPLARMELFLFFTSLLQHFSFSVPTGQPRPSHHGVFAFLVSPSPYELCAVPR", "test": "Inhibition of CYP2D6 in human liver microsomes using dextromethorphan as substrate prewarmed for 10 mins followed by NADPH addition and measured after 10 mins by LC-MS/MS analysis"}, "[27]": {"conditions": "human, microsomes, 1 h, 100 µM"}, "[28]": {"conditions": "mouse, microsomes, 1 h, 100 µM"}, "[29]": {"conditions": "mouse, 1 h, 100 µM"}, "in vitro [30]": {"test": "in vitro", "conditions": "human, liver microsomes"}, "in vitro [31]": {"test": "in vitro", "conditions": "mouse, liver microsomes"}}, "note": "Calls of active or inactive are those of the source. The rule behind the calls is not given here.", "data": [{"molecule": "CN(C)C1CCN(C(=O)c2ccc(N3N=C(c4ccccc4)/C(=N/Nc4ccccc4)C3=O)cc2)CC1", "values": [{"measurement": "GI50", "setting": "A549 [1]", "result": 2150, "unit": "nM"}, {"measurement": "GI50", "setting": "PC-3", "result": 2500, "unit": "nM"}, {"measurement": "Activity", "setting": "A549 [2]", "result": 71.2, "unit": "%"}, {"measurement": "Activity", "setting": "A549 [3]", "result": 0.535, "unit": "%"}, {"measurement": "Activity", "setting": "A549 [4]", "result": "Active"}, {"measurement": "Activity", "setting": "A549 [5]", "result": "Tde"}, {"measurement": "GI50", "setting": "NCI-H1581", "result": 2150, "unit": "nM"}, {"measurement": "GI50", "setting": "MDA-MB-231", "result": 3980, "unit": "nM"}, {"measurement": "GI50", "setting": "K562", "result": 1410, "unit": "nM"}, {"measurement": "GI50", "setting": "THP-1", "result": 2180, "unit": "nM"}, {"measurement": "Activity", "setting": "A549 [6]", "result": 84.2, "unit": "%"}, {"measurement": "Activity", "setting": "A549 [7]", "result": 10.6, "unit": "%"}, {"measurement": "Activity", "setting": "A549 [8]", "result": 4.83, "unit": "%"}, {"measurement": "Activity", "setting": "A549 [9]", "result": 0.284, "unit": "%"}, {"measurement": "Activity", "setting": "A549 [10]", "result": 26.1, "unit": "%"}, {"measurement": "Activity", "setting": "A549 [11]", "result": 18.4, "unit": "%"}, {"measurement": "Activity", "setting": "A549 [12]", "result": 93.7, "unit": "%"}, {"measurement": "Activity", "setting": "A549 [13]", "result": 15.43, "unit": "%"}, {"measurement": "Activity", "setting": "A549 [14]", "result": 73.4, "unit": "%"}, {"measurement": "Activity", "setting": "A549 [15]", "result": 63.73, "unit": "%"}, {"measurement": "Activity", "setting": "A549 [16]", "result": 25.51, "unit": "%"}, {"measurement": "Activity", "setting": "A549 [17]", "result": 27.84, "unit": "%"}, {"measurement": "Activity", "setting": "A549 [18]", "result": 16.48, "unit": "%"}, {"measurement": "Activity", "setting": "A549 [19]", "result": 8.3, "unit": "%"}, {"measurement": "Activity", "setting": "A549 [20]", "result": "Dose-Dependent Effect"}, {"measurement": "remaining at 1 h, 100 µM", "setting": "[21]", "result": 97.9, "unit": "%"}, {"measurement": "remaining at 1 h, 100 µM", "setting": "[22]", "result": 102, "unit": "%"}, {"measurement": "remaining at 1 h, 100 µM", "setting": "[23]", "result": 74.1, "unit": "%"}, {"measurement": "remaining at 1 h, 100 µM", "setting": "[24]", "result": 96, "unit": "%"}, {"measurement": "remaining at 10 min", "setting": "[25]", "result": 99.4, "unit": "%"}, {"measurement": "remaining at 1 h, 100 µM", "setting": "[26]", "result": 96, "unit": "%"}, {"measurement": "IC50", "setting": "Cytochrome P450 2C9", "result": "> 50000", "unit": "nM"}, {"measurement": "IC50", "setting": "Cytochrome P450 2D6", "result": "> 50000", "unit": "nM"}, {"measurement": "CLint", "setting": "[27]", "result": "< 9.6", "unit": "µL/min/mg"}, {"measurement": "CLint", "setting": "[28]", "result": "< 9.6", "unit": "µL/min/mg"}, {"measurement": "CLH", "setting": "[29]", "result": "< 2.28", "unit": "mL/h/kg"}, {"measurement": "half-life at 1 h, 100 µM", "setting": "in vitro [30]", "result": "> 2.42", "unit": "h"}, {"measurement": "half-life at 1 h, 100 µM", "setting": "in vitro [31]", "result": "> 2.42", "unit": "h"}]}]}
